From patent US9593305B2, “Differentiation of pluripotent stem cells” (Janssen Biotech, Inc., priority 2008, dated 2017)

Tested on: H1 human embryonic stem cells
Experiment: Secondary assay: panel of compounds with growth factor combinations and muscimol, no activin A (Example 6, Table 5)
Assay type: cell-based
Details: for Cell Number, % of positive control / Cell Number, Average Total Cell Number / Sox17 Expression, % of positive control / Sox17 Expression, Average Total Intensity: no AA (with Wnt3a)
Protocol: Clusters of H1 human embryonic stem cells were grown on reduced growth factor […]™ (Invitrogen; Cat #356231)-coated tissue culture plastic. Cells were passaged using collagenase (Invitrogen; Cat #17104-019) treatment and gentle scraping, washed to remove residual enzyme, and plated with even dispersal at a ratio of 1:1 (surface area) on reduced growth factor […]™-coated 96-well black plates (Packard ViewPlates; PerkinElmer; Cat #6005182) using volumes of 100 μl/well. Cells were allowed to attach as clusters and then recover log phase growth over a 1 to 3 day period, feeding daily with MEF-conditioned medium supplemented with 8 ng/ml bFGF (R&D Systems; Cat #233-FB). Plates were maintained at 37° C., 5% CO2 in a humidified box throughout the duration of the assay. Stocks of growth factors purchased from R&D Systems were EGF (Cat #236-EG), FGF4 (Cat #235-F4), PDGF-A (Cat #221-AA), PDGF-D (Cat #1159-SB), PDGF-A/B (Cat #222-AB), and VEGF (Cat #293-VE). […] All growth factors were solubilized in PBS with 0.1% BSA (Sigma; Cat #A7888) and stored frozen at −80° C. […] Cat #D2650) and stored frozen at −80° C. Compounds were available as 5 mM stocks in 96-well plate format, solubilized in 100% DMSO and stored at −80° C. Compounds were further diluted to an intermediate concentration of 0.2 mM in 50 mM HEPES (Invitrogen; Cat #15630-080), 20% DMSO and stored at 4° C. All growth factors and inhibitors were prepared in a deep well, 96-well polypropylene plate, diluted to 5× intermediate stocks in DMEM:F12 base medium at the beginning of assay and stored at 4° C. A secondary screening assay was conducted, testing in triplicate and feeding on alternate days over the four-day assay timeframe. Assays were initiated by aspirating culture medium from each well followed by three washes in PBS to remove residual growth factors and serum. Test volumes of 80 μl per well were added back containing DMEM:F12 base medium (Invitrogen; Cat #11330-032) supplemented with 0.625% FCS (HyClone; […] All remaining growth factors were tested at a final assay concentration of 50 ng/ml (EGF, FGF4, PDGF-A, PDGF-A/B, VEGF). […] At the conclusion of four-days of culture, assay plates were washed twice with PBS, fixed with 4% paraformaldehyde (Alexis Biochemical; Cat #ALX-350-011) at room temperature for 20 minutes, then washed three times with PBS and permeabilized with 0.5% Triton X-100 (Sigma; Cat #T8760-2) for 20 minutes at room temperature. Cells were washed again three times with PBS and blocked with 4% chicken serum (Invitrogen; Cat #16110082) in PBS for 30 minutes at room temperature. Primary antibody (goat anti-human SOX17; R&D Systems; cat #AF1924) was diluted 1:100 in 4% chicken serum and added to each well for one hour at room temperature. Alexa Fluor 488 conjugated secondary antibody (chicken anti-goat IgG; Molecular Probes; Cat #AZ1467) was diluted 1:200 in PBS and added to each sample well after washing three times with PBS. To counterstain nuclei, 4 μg/ml Hoechst 33342 (Invitrogen; Cat #H3570) was added for ten minutes at room temperature. Plates were washed once with PBS and left in 100 μl/well PBS for imaging. Imaging was performed using an IN Cell Analyzer 1000 (GE Healthcare) utilizing the 51008bs dichroic for cells stained with Hoechst 33342 and Alexa Fluor 488. Exposure times were optimized from positive control wells and from untreated negative control wells stained with secondary antibody alone. Images from 15 fields per well were acquired to compensate for any cell loss during the bioassay and subsequent staining procedures. […] Segmentation for the nuclei was determined based on grayscale levels (baseline range 100-300) and nuclear size. Averages and standard deviations were calculated for each replicate data set. Total SOX17 protein expression was reported as total intensity or integrated intensity, defined as total fluorescence of the cell multiplied by the area of the cell. […]

[1] = EGF + FGF4 + PDGF-AB + Muscimol

| SMILES | Cell Number, % of positive control (EGF) [%] | Cell Number, Average Total Cell Number (EGF) | Sox17 Expression, % of positive control (EGF) [%] | Sox17 Expression, Average Total Intensity (EGF) | Cell Number, % of positive control (EGF + FGF4) [%] | Cell Number, Average Total Cell Number (EGF + FGF4) | Sox17 Expression, % of positive control (EGF + FGF4) [%] | Sox17 Expression, Average Total Intensity (EGF + FGF4) | Cell Number, % of positive control (EGF + FGF4 + PDGF-A + Muscimol) [%] | Cell Number, Average Total Cell Number (EGF + FGF4 + PDGF-A + Muscimol) | Sox17 Expression, % of positive control (EGF + FGF4 + PDGF-A + Muscimol) [%] | Sox17 Expression, Average Total Intensity (EGF + FGF4 + PDGF-A + Muscimol) | Cell Number, % of positive control (EGF + FGF4 + PDGF-A + VEGF) [%] | Cell Number, Average Total Cell Number (EGF + FGF4 + PDGF-A + VEGF) | Sox17 Expression, % of positive control (EGF + FGF4 + PDGF-A + VEGF) [%] | Sox17 Expression, Average Total Intensity (EGF + FGF4 + PDGF-A + VEGF) | Cell Number, % of positive control (EGF + FGF4 + PDGF-AB) [%] | Cell Number, Average Total Cell Number (EGF + FGF4 + PDGF-AB) | Sox17 Expression, % of positive control (EGF + FGF4 + PDGF-AB) [%] | Sox17 Expression, Average Total Intensity (EGF + FGF4 + PDGF-AB) | further results |
| --- | --- | --- | --- | --- | --- | --- | --- | --- | --- | --- | --- | --- | --- | --- | --- | --- | --- | --- | --- | --- | --- |
| O=C1CCN2CCN(CC2)Cc2cc(Cl)cc(c2)Nc2ncnc(n2)-c2cncc(c2)CCCN1 [Compound 34, 5-Chloro-1,8,10,12,16,22,26,32-octaazapentacyclo[24.2.2.1˜3.7˜0.1˜9,13˜0.1˜14.18˜]tritriaconta-3(33), 4,6,9(32), 10,12,14(31), 15,17-nonaen-23-one] | 124.89 | 13062 | 17.39 | 2.78E+07 | 125.58 | 13133 | 76.85 | 1.23E+08 | 116.72 | 12208 | 34.83 | 5.56E+07 | 123.36 | 12901 | 31.35 | 5.01E+07 | 119.83 | 12532 | 68.41 | 1.09E+08 | response with growth factors (cell numbers and SOX17 expression) (2.5 μM, all growth factor combinations tested, no activin A): significant synergistic responses with all growth factors tested; Cell Number, % of positive control [1]: 151.18%; Cell Number, Average Total Cell Number [1]: 15811; Sox17 Expression, % of positive control [1]: 4.32%; Sox17 Expression, Average Total Intensity [1]: 6.90E+06; Cell Number, % of positive control (EGF + PDGF-A + VEGF): 112.84%; Cell Number, Average Total Cell Number (EGF + PDGF-A + VEGF): 11801; Sox17 Expression, % of positive control (EGF + PDGF-A + VEGF): 2.53%; Sox17 Expression, Average Total Intensity (EGF + PDGF-A + VEGF): 4.04E+06; Cell Number, % of positive control (FGF4 + PDGF-A + VEGF): 145.93%; Cell Number, Average Total Cell Number (FGF4 + PDGF-A + VEGF): 15262; Sox17 Expression, % of positive control (FGF4 + PDGF-A + VEGF): 7.18%; Sox17 Expression, Average Total Intensity (FGF4 + PDGF-A + VEGF): 1.15E+07 |
| CCN1CCCc2cccc(c2)-c2ncnc(n2)Nc2cccc(c2)CCNC(=O)C1 [Compound 29, 18-Ethyl-3,5,7,15,18,28-hexaazatetracyclo[20.3.1.1˜2,6˜0.1˜8,12˜]octacosa-1(26), 2(28), 3,5,8(27), 9,11,22,24-nonaen-16-one] | 18.84 | 1971 | −9.00 | −1.44E+07 | 71.10 | 7436 | −2.72 | −4.35E+06 | 96.30 | 10071 | 1.85 | 2.95E+06 | 84.70 | 8858 | −4.48 | −7.15E+06 | 62.48 | 6535 | −4.71 | −7.52E+06 | Cell Number, % of positive control [1]: 13.15%; Cell Number, Average Total Cell Number [1]: 1376; Sox17 Expression, % of positive control [1]: −8.91%; Sox17 Expression, Average Total Intensity [1]: −1.42E+07; Cell Number, % of positive control (EGF + PDGF-A + VEGF): 84.91%; Cell Number, Average Total Cell Number (EGF + PDGF-A + VEGF): 8880; Sox17 Expression, % of positive control (EGF + PDGF-A + VEGF): −5.34%; Sox17 Expression, Average Total Intensity (EGF + PDGF-A + VEGF): −8.53E+06; Cell Number, % of positive control (FGF4 + PDGF-A + VEGF): 77.89%; Cell Number, Average Total Cell Number (FGF4 + PDGF-A + VEGF): 8146; Sox17 Expression, % of positive control (FGF4 + PDGF-A + VEGF): −3.02%; Sox17 Expression, Average Total Intensity (FGF4 + PDGF-A + VEGF): −4.82E+06 |
| O=C1NCCCc2cncc(c2)-c2ncnc(n2)Nc2cc(Cl)cc(c2)CN2CCCC1C2 (stereo not drawn) [Compound 37, 10-Chloro-3,5,7,14,20,26,31-heptaazapentacyclo[22.3.1.1˜2,6˜0.1˜8,12˜0.1˜14,18˜]hentriaconta-1(28), 2(31), 3,5,8(30), 9,11,24,26-nonaen-19-one] | 76.17 | 7966 | −7.42 | −1.19E+07 | 66.28 | 6932 | −2.89 | −4.62E+06 | 55.66 | 5821 | −7.64 | −1.22E+07 | 83.93 | 8778 | 0.09 | 1.39E+05 | 71.46 | 7473 | −1.63 | −2.61E+06 | Cell Number, % of positive control [1]: 75.67%; Cell Number, Average Total Cell Number [1]: 7914; Sox17 Expression, % of positive control [1]: −1.20%; Sox17 Expression, Average Total Intensity [1]: −1.91E+06; Cell Number, % of positive control (EGF + PDGF-A + VEGF): 123.88%; Cell Number, Average Total Cell Number (EGF + PDGF-A + VEGF): 12956; Sox17 Expression, % of positive control (EGF + PDGF-A + VEGF): −7.82%; Sox17 Expression, Average Total Intensity (EGF + PDGF-A + VEGF): −1.25E+07; Cell Number, % of positive control (FGF4 + PDGF-A + VEGF): 64.36%; Cell Number, Average Total Cell Number (FGF4 + PDGF-A + VEGF): 6731; Sox17 Expression, % of positive control (FGF4 + PDGF-A + VEGF): −6.89%; Sox17 Expression, Average Total Intensity (FGF4 + PDGF-A + VEGF): −1.10E+07 |
| CCN1CC(=O)NCCCc2cncc(c2)-c2ncnc(n2)Nc2cc(Cl)cc(c2)C1 [Compound 35, 10-Chloro-14-ethyl-3,5,7,14,17,23,27-heptaazatetracyclo[19.3.1.1˜2,6˜0.1˜8,12]Theptacosa-1(25), 2(27), 3,5,8(26), 9,11,21,23-nonaen-16-one] | 228.40 | 23887 | −6.32 | −1.01E+07 | 203.36 | 21268 | 0.85 | 1.36E+06 | 147.80 | 15457 | 43.15 | 6.89E+07 | 154.25 | 16132 | 57.04 | 9.11E+07 | 168.39 | 17611 | 8.03 | 1.28E+07 | Cell Number, % of positive control [1]: 171.62%; Cell Number, Average Total Cell Number [1]: 17949; Sox17 Expression, % of positive control [1]: 0.96%; Sox17 Expression, Average Total Intensity [1]: 1.54E+06; Cell Number, % of positive control (EGF + PDGF-A + VEGF): 222.23%; Cell Number, Average Total Cell Number (EGF + PDGF-A + VEGF): 23242; Sox17 Expression, % of positive control (EGF + PDGF-A + VEGF): 7.72%; Sox17 Expression, Average Total Intensity (EGF + PDGF-A + VEGF): 1.23E+07; Cell Number, % of positive control (FGF4 + PDGF-A + VEGF): 153.63%; Cell Number, Average Total Cell Number (FGF4 + PDGF-A + VEGF): 16068; Sox17 Expression, % of positive control (FGF4 + PDGF-A + VEGF): 24.57%; Sox17 Expression, Average Total Intensity (FGF4 + PDGF-A + VEGF): 3.92E+07 |
